Measurements from US8536178B2, “Pharmaceutical composition for preventing or treating diseases associated with beta-amyloid accumulation containing morpholin or piperazine based compounds having SO3H or COOH as active ingredient” (Korea Institute of Science and Technology, priority 2009, dated 2013).
Values belong to the compound of their own block, whether it stands above or below them.

Key:
Aβ40 fibril = biological target: T1, Aβ40 fibril (Homo sapiens, UniProt P05067); test: Accumulated beta-amyloid disaggregation activity by thioflavin T (ThT) fluorescence intensity, Aβ40; format: biochemical; conditions: Aβ40 50 μM, compound 20 mM
T1 construct: beta-amyloids 40 and 42 consisting of 40 and 42 amino acids
Procedure: (§1) In order to measure the disaggregation activity of the beta-amyloid aggregate of a compound according to the present invention, the following experiment was performed using thioflavin T (ThT) fluorescence intensity.
(§2) Thioflavin T (ThT) is well mixed with fibril which is a beta-amyloid aggregate in a solution and tends to increase the fluorescence intensity as the concentration of fibril increases.
(§3) For aggregation of beta-amyloid, a beta-amyloid stock solution was prepared. The beta-amyloid stock solutions were prepared in a DMSO solution such that Aβ40 or Aβ42 might have a concentration of 5 mM and 2.5 mM, respectively, and diluted in distilled water by 10 times to prepare Aβ40 and Aβ42 at a final concentration of 500 μM and 250 μM, respectively. It was cultured at 37° C. for 7 to 10 days to prepare a sufficient amount of beta-amyloid aggregate. Subsequently, compounds of chemical formula 1a to 1e according to the present invention or distilled water were again added into each accumulated beta-amyloid to obtain 10-times diluted solutions, and then they were cultured at 37° C. for 7 days. Distilled water was used as a control group. The final concentration of the compound was 20 mM, and the final concentrations of beta-amyloid Aβ40 or Aβ42 were 50 μM and 25 μM, respectively. After distilled water or the compound was added, 25 μl of each reaction solution on 0th, 3rd, and 7th day was aliquoted into each well, into which was added 75 μl of thioflavin T (ThT) to have thioflavin T (ThT) at a concentration of 5 μM. It was cultured for additional 15 minutes, and then the fluorescence intensity of a half well 96 fluorescence microplate was measured by Envision 2103 multilabel reader, Perkin-Elmer. During the measurement of fluorescence intensity, the wavelengths of excitation and emission were 450 nm and 485 nm, respectively and the counting time was 0.5 sec. […]

Aβ42 fibril = biological target: T2, Aβ42 fibril (Homo sapiens, UniProt P05067); test: Accumulated beta-amyloid disaggregation activity by thioflavin T (ThT) fluorescence intensity, Aβ42; format: biochemical; conditions: Aβ42 25 μM, compound 20 mM
T2 construct: beta-amyloids 40 and 42 consisting of 40 and 42 amino acids
Procedure: as §1, §2, §3

accumulated Aβ40 = biological target: T3, accumulated Aβ40 (Homo sapiens, UniProt P05067); test: Beta-amyloid fibril disaggregation activity by SDS-PAGE, Aβ40; format: biochemical; conditions: Aβ40 50 μM, compound 20 mM, 3rd and 7th day, photo-induced cross-linking, silver staining
T3 construct: beta-amyloids 40 and 42 consisting of 40 and 42 amino acids
Procedure: (§4) In order to measure the accumulated beta-amyloid disaggregation activity of a compound according to the present invention, the following experiment was performed using SDS-PAGE.
(§5) When peptides or proteins are subjected to electrophoresis on an SDS gel, the secondary structures of the proteins are broken. Thus, it is necessary to cross-link the proteins and immobilize their structures. It is achieved by a photo-induced cross-linking such that the structure of accumulated beta-amyloid may not be dismissed during electrophoresis on SDS gel. Specifically, a beta-amyloid stock solution was prepared in a DMSO solution such that Aβ40 or Aβ42 may have a concentration of 5 mM or 2.5 mM, and was […] by 10 times using distilled water to prepare Aβ40 and Aβ42 at a concentration of 500 μM and 250 μM, respectively. It was cultured at 37° C. for 7 to 10 days to prepare a sufficient amount of beta-amyloid aggregate. Subsequently, compounds of chemical formula 1a to 1e according to the present invention or distilled water were again added into each accumulated beta-amyloid to obtain 10-times diluted solutions, and then they were cultured at 37° C. for 7 days. Distilled water was used as a control group. The final concentration of the compound was 20 mM, and the final concentrations of beta-amyloid Aβ40 or Aβ42 were 50 μM and 25 μM, respectively. […]

accumulated Aβ42 = biological target: T4, accumulated Aβ42 (Homo sapiens, UniProt P05067); test: Beta-amyloid fibril disaggregation activity by SDS-PAGE, Aβ42; format: biochemical; conditions: Aβ42 25 μM, compound 20 mM, 3rd and 7th day, photo-induced cross-linking, silver staining
T4 construct: beta-amyloids 40 and 42 consisting of 40 and 42 amino acids
Procedure: as §4, §5

[1] = biological target: T5, beta-amyloid 40 aggregate (Homo sapiens, UniProt P05067); test: Beta-amyloid fibril disaggregation activity by electronic microscope, Aβ40; format: biochemical; conditions: Aβ40 50 μM, compound 20 mM, 3rd and 7th days, FIG. 6
T5 construct: beta-amyloids 40 and 42 consisting of 40 and 42 amino acids
Procedure: (§6) In order to measure accumulated beta-amyloid disaggregation activity of a compound according to the present invention, the following experiment was performed using electronic microscope.
(§7) A beta-amyloid stock solution was prepared such that Aβ40 or Aβ42 might have a concentration of 5 mM and 2.5 mM, respectively, and diluted in distilled water by 10 times to prepare Aβ40 and Aβ42 at a final concentration of 500 μM and 250 μM, respectively. It was cultured at 37° C. for 7 to 10 days to prepare a sufficient amount of beta-amyloid aggregate. Subsequently, compounds of chemical formula 1a to 1e according to the present invention or distilled water were again added into each accumulated beta-amyloid to obtain 10-times diluted solutions, and then it was cultured at 37° C. for 7 days. Distilled water was used as a control group. The final concentration of the compound was 20 mM, and the final concentrations of beta-amyloid Aβ40 or Aβ42 were 50 μM and 25 μM, respectively. Subsequently, a compound of chemical formula 1a was added, and then the mixture was cultured at 37° C. for 7 days. From each of the reaction solutions on 0th, 3rd, and 7th days after addition of distilled water or the compound, the accumulations and disaggregation degrees of accumulated beta-amyloid were observed using analytical transmission electron microscope. […]

[2] = biological target: T6, beta-amyloid 42 aggregate (Homo sapiens, UniProt P05067); test: Beta-amyloid fibril disaggregation activity by electronic microscope, Aβ42; format: biochemical; conditions: Aβ42 25 μM, compound 20 mM, 3rd and 7th days, FIG. 7
T6 construct: beta-amyloids 40 and 42 consisting of 40 and 42 amino acids
Procedure: as §6, §7

[3] = tested on: HT-22 cells treated with Aβ40; test: Cell viability (MTT) on beta-amyloid toxicity, Aβ40; format: cell-based, rat; conditions: HT-22, Aβ40 2 μM pre-treated with compound, 24 hours, untreated cells = 100%, FIG. 8 (a)
Procedure: (§8) In order to determine the cell survival rate of a compound according to the present invention on beta-amyloid toxicity, the following example was performed.
(§9) In order to obtain beta-amyloid aggregates, a beta-amyloid stock solution was prepared. The beta-amyloid stock solutions were prepared in a DMSO solution such that Aβ40 or Aβ42 might have a concentration of 5 mM and 2.5 mM, respectively, and diluted in distilled water by 10 times to prepare Aβ40 and Aβ42 at a final concentration of 500 μM and 250 μM, respectively. Distilled water added to each solution to culture a 10 times diluted beta-amyloid at 37° C. for 7 to 10 days. Subsequently, compounds of chemical formula 1a to 1e according to the present invention or distilled water were again added into each beta-amyloid to obtain 10-times diluted solutions, and then it was cultured at 37° C. for 7 days. Distilled water was used as a control group instead of the compound. […] The cytotoxicity of the reaction solutions on 0th, 3rd, and 7th days after addition of distilled water or the compound was measured using the following cell line.
(§10) HT-22, a neuronal cell line of a rat, was cultured in DMEM (Dulbecco's Modified Eagle's Medium) supplemented with 10% FBS (Fetal Bovine Serum) and 1% penicillin/streptomycin in an incubator of 37° C. and 5% CO2. […] 18 hours later, the optical absorption was determined at 570 nm by a microplate reader. […]

[4] = tested on: HT-22 cells treated with Aβ42; test: Cell viability (MTT) on beta-amyloid toxicity, Aβ42; format: cell-based, rat; conditions: HT-22, Aβ42 1 μM pre-treated with compound, 24 hours, untreated cells = 100%, FIG. 8 (b)
Procedure: as §8, §9, §10

HT-22 cells = test: Cytotoxicity of the compound alone (MTT); format: cell-based, rat; conditions: HT-22, without any treatment of beta-amyloid, untreated cells = 100%
Aβ40 = biological target: T7, Aβ40 (Homo sapiens, UniProt P05067); test: Beta-amyloid accumulation inhibitory activity by thioflavin T (ThT) fluorescence intensity; format: biochemical; conditions: Aβ40 50 μM, compound 20 mM (test compound: chemical formula 1a), 37° C., 0th to 7th day, FIG. 1
T7 construct: beta-amyloids 40 and 42 consisting of 40 and 42 amino acids
Procedure: In order to measure the beta-amyloid accumulation inhibitory activity of a compound according to the present invention, the following experiment was performed using thioflavin T (ThT) fluorescence intensity.
Thioflavin T (ThT) is well mixed with fibril which is a beta-amyloid aggregate in a solution and tends to increase the shifted fluorescence intensity as the concentration of fibril increases.
A solution was prepared in a DMSO solution such that Aβ40 might have a concentration of 5 mM, and diluted in a compound of chemical formula 1a by 100 times to prepare Aβ40 at a final concentration of 50 μM. The concentration of the compound was 20 mM. Tramiprosate was used as a control group. Tramiprosate is a compound known to treat Alzheimer's disease and related diseases by inhibiting the accumulation of beta-amyloid (F. Gervais, J. et al. (2007)). Subsequently, it was cultured at 37° C. for 7 days. […] It was cultured for additional 15 minutes, and then the fluorescence intensity of a half well 96 fluorescence microplate was measured by Envision 2103 multilabel reader, Perkin-Elmer. During the measurement of fluorescence intensity, the wavelengths of excitation and emission were 450 nm and 485 nm, respectively and the counting time was 0.5 sec.

T1 sequence (P05067 672-711 limits assumed): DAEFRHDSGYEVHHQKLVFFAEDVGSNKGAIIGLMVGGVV
T2 sequence (P05067 672-713 limits assumed): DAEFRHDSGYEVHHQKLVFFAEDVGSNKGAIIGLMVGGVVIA
T3 sequence (P05067 672-711 limits assumed): as the sequence (P05067 672-711 limits assumed) above
T5 sequence (P05067 672-711 limits assumed): as above
T7 sequence (P05067 672-711 limits assumed): as above
T4 sequence (P05067 672-713 limits assumed): as the sequence (P05067 672-713 limits assumed) above
T6 sequence (P05067 672-713 limits assumed): as above

Compound: O=S(=O)(O)CCCN1CCN(CCO)CC1 [chemical formula 1a]
course of ThT fluorescence intensity over time (Aβ40 fibril; 0th, 3rd, 7th day, FIG. 2 (a)): increased over time
course of ThT fluorescence intensity over time (Aβ42 fibril; 0th, 3rd, 7th day, FIG. 2 (b)): increased over time
disaggregation of accumulated beta-amyloid into monomers (SDS-PAGE band near 3.5 kD) (accumulated Aβ40): disaggregated into monomers
disaggregation of accumulated beta-amyloid into monomers (SDS-PAGE band near 3.5 kD) (accumulated Aβ42): disaggregated into monomers
beta-amyloid fibrils in transmission electron microscope images [1]: no beta-amyloid fibrils appeared on 3rd and 7th days
beta-amyloid fibrils in transmission electron microscope images [2]: no beta-amyloid fibrils appeared on 3rd and 7th days
cell viability [3]: ≥ 95%
cell viability [4]: ≥ 95%
cell viability, compound only (HT-22 cells): ≥ 95%

ThT fluorescence intensity compared to initially prepared aggregates (prefibrils) (Aβ40 fibril; 37° C., up to 7 days): increased
ThT fluorescence intensity compared to initially prepared aggregates (prefibrils) (Aβ42 fibril; 37° C., up to 7 days): increased
Compound: O=S(=O)(O)CC(O)CN1CCN(CCO)CC1 (centres unmarked) [chemical formula 2, HEPPSO]
disaggregation activity to the beta-amyloid aggregate (ThT) (Aβ40 fibril): does not exhibit any disaggregation activity
disaggregation activity to the beta-amyloid aggregate (ThT) (Aβ42 fibril): does not exhibit any disaggregation activity

increase of ThT fluorescence intensity (Aβ40): about 3.5 times
Compound: NCCCS(=O)(=O)O [tramiprosate, Tramiprosate]
